Assay results published in article PMC5392334, “Discovery and characterization of a novel irreversible EGFR mutants selective and potent kinase inhibitor CHMFL-EGFR-26 with a distinct binding mode” (Oncotarget, 2017).

Key:
CLK4 = molecular target: T1, CLK4 (Homo sapiens, UniProt Q9HAZ1); assay: KinomeScan; format: binding; conditions: read-out: % control
T1 construct: purchased DiscoveRx KINOMEscan

FLT3(ITD) = assay: KinomeScan; format: binding; conditions: 1μM
CDKL3 = molecular target: T2, CDKL3 (Homo sapiens, UniProt Q8IVW4); assay: KinomeScan; format: binding; conditions: read-out: % control
T2 construct: purchased DiscoveRx KINOMEscan

PRKCI = molecular target: T3, PRKCI (Homo sapiens, UniProt P41743); assay: KinomeScan; format: binding; conditions: read-out: % control
T3 construct: purchased DiscoveRx KINOMEscan

EGFR(S752-I759del) = molecular target: T4, EGFR(S752-I759del) (Homo sapiens, UniProt P00533, DEL752-759); assay: KinomeScan; format: binding; conditions: read-out: % control
T4 construct: purchased DiscoveRx KINOMEscan
T4 sequence (P00533 with tags, fused parts or gaps DEL752-759 limits assumed): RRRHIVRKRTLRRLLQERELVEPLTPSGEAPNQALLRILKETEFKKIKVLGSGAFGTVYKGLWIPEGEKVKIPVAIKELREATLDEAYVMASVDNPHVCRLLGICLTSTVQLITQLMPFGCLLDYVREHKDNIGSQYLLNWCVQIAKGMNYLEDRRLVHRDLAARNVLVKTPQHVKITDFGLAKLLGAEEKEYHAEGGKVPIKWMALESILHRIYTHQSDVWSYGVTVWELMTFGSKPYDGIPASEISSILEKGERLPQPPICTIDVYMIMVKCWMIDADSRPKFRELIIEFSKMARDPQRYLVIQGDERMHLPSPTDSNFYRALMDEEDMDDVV

ZAP70 = molecular target: T5, ZAP70 (Homo sapiens, UniProt P43403); assay: KinomeScan; format: binding; conditions: read-out: % control
T5 construct: purchased DiscoveRx KINOMEscan
T5 sequence (P43403 whole entry): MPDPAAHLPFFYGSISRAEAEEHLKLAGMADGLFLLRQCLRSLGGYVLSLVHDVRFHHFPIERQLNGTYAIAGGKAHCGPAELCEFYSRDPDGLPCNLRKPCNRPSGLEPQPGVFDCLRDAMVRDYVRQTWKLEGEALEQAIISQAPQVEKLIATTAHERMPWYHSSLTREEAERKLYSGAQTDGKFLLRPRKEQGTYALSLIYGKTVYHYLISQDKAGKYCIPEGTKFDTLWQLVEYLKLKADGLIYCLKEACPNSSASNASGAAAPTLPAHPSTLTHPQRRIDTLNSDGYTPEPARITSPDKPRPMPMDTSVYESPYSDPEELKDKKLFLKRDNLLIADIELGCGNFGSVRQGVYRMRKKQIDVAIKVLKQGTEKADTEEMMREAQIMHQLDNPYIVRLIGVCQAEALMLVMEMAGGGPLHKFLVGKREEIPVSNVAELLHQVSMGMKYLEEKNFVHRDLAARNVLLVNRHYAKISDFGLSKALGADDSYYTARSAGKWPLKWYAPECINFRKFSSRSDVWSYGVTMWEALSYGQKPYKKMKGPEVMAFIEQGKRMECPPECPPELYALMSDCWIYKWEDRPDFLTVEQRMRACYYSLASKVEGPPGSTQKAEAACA

EGFR(E746-A750del) = molecular target: T6, EGFR(E746-A750del) (Homo sapiens, UniProt P00533, DEL746-750); assay: KinomeScan; format: binding; conditions: read-out: % control
T6 construct: purchased DiscoveRx KINOMEscan
T6 sequence (P00533 with tags, fused parts or gaps DEL746-750 limits assumed): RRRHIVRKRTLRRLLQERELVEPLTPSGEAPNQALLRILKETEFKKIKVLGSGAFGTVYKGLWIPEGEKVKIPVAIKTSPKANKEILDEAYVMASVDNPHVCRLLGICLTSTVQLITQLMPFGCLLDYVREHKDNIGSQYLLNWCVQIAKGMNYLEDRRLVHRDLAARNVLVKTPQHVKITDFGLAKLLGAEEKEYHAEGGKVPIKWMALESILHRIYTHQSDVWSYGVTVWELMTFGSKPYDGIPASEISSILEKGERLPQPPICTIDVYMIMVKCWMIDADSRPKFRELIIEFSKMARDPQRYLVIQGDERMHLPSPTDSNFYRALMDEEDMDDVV

ABL1-phosphorylated = molecular target: T7, ABL1-phosphorylated (Homo sapiens, UniProt P00519); assay: KinomeScan; format: binding; conditions: read-out: % control
T7 construct: purchased DiscoveRx KINOMEscan

CSNK1G3 = molecular target: T8, CSNK1G3 (Homo sapiens, UniProt Q9Y6M4); assay: KinomeScan; format: binding; conditions: read-out: % control
T8 construct: purchased DiscoveRx KINOMEscan

ASK1 = molecular target: T9, ASK1 (Homo sapiens, UniProt Q99683); assay: KinomeScan; format: binding; conditions: read-out: % control
T9 construct: purchased DiscoveRx KINOMEscan

TAOK1 = molecular target: T10, TAOK1 (Homo sapiens, UniProt Q7L7X3); assay: KinomeScan; format: binding; conditions: read-out: % control
T10 construct: purchased DiscoveRx KINOMEscan

CTK = molecular target: T11, CTK (Homo sapiens, UniProt P42679); assay: KinomeScan; format: binding; conditions: read-out: % control
T11 construct: purchased DiscoveRx KINOMEscan
T11 sequence (P42679 whole entry): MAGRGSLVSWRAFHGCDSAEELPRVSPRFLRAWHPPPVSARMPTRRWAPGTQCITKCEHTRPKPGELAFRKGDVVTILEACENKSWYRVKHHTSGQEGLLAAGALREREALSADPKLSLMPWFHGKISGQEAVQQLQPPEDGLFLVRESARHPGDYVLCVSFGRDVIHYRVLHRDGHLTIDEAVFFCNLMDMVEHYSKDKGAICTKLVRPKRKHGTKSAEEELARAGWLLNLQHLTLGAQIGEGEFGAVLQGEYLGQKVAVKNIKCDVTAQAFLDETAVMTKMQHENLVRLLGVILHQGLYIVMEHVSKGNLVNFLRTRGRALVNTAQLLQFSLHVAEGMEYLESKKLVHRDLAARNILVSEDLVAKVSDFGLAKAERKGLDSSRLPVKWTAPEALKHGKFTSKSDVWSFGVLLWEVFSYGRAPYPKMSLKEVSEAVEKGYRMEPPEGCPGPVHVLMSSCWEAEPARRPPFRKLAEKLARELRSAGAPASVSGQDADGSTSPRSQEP

ACVR1B = molecular target: T12, ACVR1B (Homo sapiens, UniProt P36896); assay: KinomeScan; format: binding; conditions: read-out: % control
T12 construct: purchased DiscoveRx KINOMEscan

RIPK5 = molecular target: T13, RIPK5 (Homo sapiens, UniProt Q6XUX3); assay: KinomeScan; format: binding; conditions: read-out: % control
T13 construct: purchased DiscoveRx KINOMEscan

[1] = molecular target: T14, EGFR(L747-S752del, P753S) (Homo sapiens, UniProt P00533, DEL747-752/P753S); assay: KinomeScan; format: binding; conditions: read-out: % control
T14 construct: purchased DiscoveRx KINOMEscan
T14 sequence (P00533 with tags, fused parts or gaps DEL747-752/P753S limits assumed): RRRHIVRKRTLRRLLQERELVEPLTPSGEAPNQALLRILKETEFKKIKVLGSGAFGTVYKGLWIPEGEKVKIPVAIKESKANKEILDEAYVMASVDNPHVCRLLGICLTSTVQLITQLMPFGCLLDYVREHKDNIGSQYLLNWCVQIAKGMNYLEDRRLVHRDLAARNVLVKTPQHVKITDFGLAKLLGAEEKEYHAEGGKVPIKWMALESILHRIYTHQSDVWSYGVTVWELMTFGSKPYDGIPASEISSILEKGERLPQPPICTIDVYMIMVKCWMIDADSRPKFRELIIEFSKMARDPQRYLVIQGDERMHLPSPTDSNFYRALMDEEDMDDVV

PIK3CA(C420R) = molecular target: T15, PIK3CA(C420R) (Homo sapiens, UniProt P42336, C420R); assay: KinomeScan; format: binding; conditions: read-out: % control
T15 construct: purchased DiscoveRx KINOMEscan

MAPKAPK2 = molecular target: T16, MAPKAPK2 (Homo sapiens, UniProt P49137); assay: KinomeScan; format: binding; conditions: read-out: % control
T16 construct: purchased DiscoveRx KINOMEscan
T16 sequence (P49137 whole entry): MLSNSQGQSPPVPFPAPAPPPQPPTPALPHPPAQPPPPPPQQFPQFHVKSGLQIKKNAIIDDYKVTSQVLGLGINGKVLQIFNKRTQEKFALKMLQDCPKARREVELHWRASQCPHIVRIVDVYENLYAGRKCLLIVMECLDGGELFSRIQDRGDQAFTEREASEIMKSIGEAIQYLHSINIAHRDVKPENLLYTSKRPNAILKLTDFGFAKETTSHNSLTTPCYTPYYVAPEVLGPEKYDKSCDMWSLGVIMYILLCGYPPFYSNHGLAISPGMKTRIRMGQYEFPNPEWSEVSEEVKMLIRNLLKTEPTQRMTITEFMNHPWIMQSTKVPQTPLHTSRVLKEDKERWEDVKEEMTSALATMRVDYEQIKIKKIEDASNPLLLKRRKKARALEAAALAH

ABL1-nonphosphorylated = molecular target: T17, ABL1-nonphosphorylated (Homo sapiens, UniProt P00519); assay: KinomeScan; format: binding; conditions: read-out: % control
T17 construct: purchased DiscoveRx KINOMEscan

RIPK2 = molecular target: T18, RIPK2 (Homo sapiens, UniProt O43353); assay: KinomeScan; format: binding; conditions: read-out: % control
T18 construct: purchased DiscoveRx KINOMEscan

ADCK3 = molecular target: T19, ADCK3 (Homo sapiens, UniProt Q8NI60); assay: KinomeScan; format: binding; conditions: read-out: % control
T19 construct: purchased DiscoveRx KINOMEscan

CLK2 = molecular target: T20, CLK2 (Homo sapiens, UniProt P49760); assay: KinomeScan; format: binding; conditions: read-out: % control
T20 construct: purchased DiscoveRx KINOMEscan

PC9 tumor xenografts = assay: PC9 cell inoculated xenograft mouse model; format: in vivo, mice; conditions: 21-day treatment
Protocol: Figure 5 Anti-tumor efficacy of CHMFL-EGFR-26 in PC9 cell inoculated xenograft mouse mode Female nu/nu mice bearing established PC9 tumor xenografts were treated with CHMFL-EGFR-26 at 25.0 and 50.0 mg/kg/d, or vehicle. Daily oral administration was initiated when PC9 tumors had reached a size of 200 to 400 mm^3. Each group contained 7 or 8 animals. Data, mean ± SEM. A. Body weight and B. Tumor size measurements from PC9 xenograft mice after CHMFL-EGFR-26 administration. Initial body weight and tumor size were set as 100%. C. Representative photographs of tumors in each group after 25.0 or 50.0 mg/kg/d CHMFL-EGFR-26 or vehicle treatment. D. Comparison of the final tumor weight in each group after 21-day treatment period. Numbers in columns indicate the mean tumor weight in each group. E. Representative micrographs of hematoxylin and eosin (HE), Ki-67, and TUNEL staining of tumor tissues with CHMFL-EGFR-26 treatment compared to the vehicle-treated group. […]
Five-week old female nu/nu mice were purchased from the Shanghai Experimental Center, Chinese Science Academy (Shanghai, China). […] Body weight and tumor growth was measured daily after CHMFL-EGFR-26 treatment. Tumor volumes were calculated as follows: tumor volume (mm^3)= [(W^2 × L)/2] in which width (W) is defined as the smaller of the two measurements and length (L) is defined as the larger of the two measurements.

MST2 = molecular target: T21, MST2 (Homo sapiens, UniProt Q13188); assay: KinomeScan; format: binding; conditions: read-out: % control
T21 construct: purchased DiscoveRx KINOMEscan
T21 sequence (Q13188 whole entry): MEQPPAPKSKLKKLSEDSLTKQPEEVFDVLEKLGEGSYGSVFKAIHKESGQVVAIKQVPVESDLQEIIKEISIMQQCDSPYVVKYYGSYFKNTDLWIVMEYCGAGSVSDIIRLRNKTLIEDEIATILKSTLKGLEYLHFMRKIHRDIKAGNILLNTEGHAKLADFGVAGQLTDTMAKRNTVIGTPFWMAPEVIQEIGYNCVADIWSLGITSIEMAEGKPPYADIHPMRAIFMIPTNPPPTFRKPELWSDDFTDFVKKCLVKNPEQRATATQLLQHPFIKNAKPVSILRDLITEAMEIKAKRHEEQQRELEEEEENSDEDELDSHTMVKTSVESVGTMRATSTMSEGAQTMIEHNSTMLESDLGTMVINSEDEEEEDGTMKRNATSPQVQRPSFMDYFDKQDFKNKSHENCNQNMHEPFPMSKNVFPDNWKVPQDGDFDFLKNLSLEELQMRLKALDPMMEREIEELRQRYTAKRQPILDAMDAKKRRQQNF

MAP4K3 = molecular target: T22, MAP4K3 (Homo sapiens, UniProt Q8IVH8); assay: KinomeScan; format: binding; conditions: read-out: % control
T22 construct: purchased DiscoveRx KINOMEscan

PAK7 = molecular target: T23, PAK7 (Homo sapiens, UniProt Q9P286); assay: KinomeScan; format: binding; conditions: read-out: % control
T23 construct: purchased DiscoveRx KINOMEscan
T23 sequence (Q9P286 whole entry): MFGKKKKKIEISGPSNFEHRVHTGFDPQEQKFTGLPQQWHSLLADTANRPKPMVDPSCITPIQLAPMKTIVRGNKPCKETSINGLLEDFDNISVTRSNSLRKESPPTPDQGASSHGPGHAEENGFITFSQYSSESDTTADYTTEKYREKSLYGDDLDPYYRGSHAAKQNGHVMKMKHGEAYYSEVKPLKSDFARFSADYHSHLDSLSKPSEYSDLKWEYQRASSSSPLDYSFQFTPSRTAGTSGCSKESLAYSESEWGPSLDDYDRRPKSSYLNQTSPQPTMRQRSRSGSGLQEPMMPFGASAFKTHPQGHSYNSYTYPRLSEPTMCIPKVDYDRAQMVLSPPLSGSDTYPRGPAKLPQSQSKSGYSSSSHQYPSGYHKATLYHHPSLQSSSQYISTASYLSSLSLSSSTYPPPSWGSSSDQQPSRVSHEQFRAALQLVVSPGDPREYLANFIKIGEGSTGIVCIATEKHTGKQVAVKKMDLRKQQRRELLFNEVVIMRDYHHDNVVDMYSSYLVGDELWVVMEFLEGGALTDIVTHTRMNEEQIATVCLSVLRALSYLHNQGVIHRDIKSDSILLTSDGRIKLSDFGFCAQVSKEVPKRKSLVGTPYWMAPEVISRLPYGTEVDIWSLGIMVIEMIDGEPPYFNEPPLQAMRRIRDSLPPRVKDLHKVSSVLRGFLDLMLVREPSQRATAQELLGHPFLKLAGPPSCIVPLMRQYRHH

BRAF = molecular target: T24, BRAF (Homo sapiens, UniProt P15056); assay: KinomeScan; format: binding; conditions: read-out: % control
T24 construct: purchased DiscoveRx KINOMEscan

CLK1 = molecular target: T25, CLK1 (Homo sapiens, UniProt P49759); assay: KinomeScan; format: binding; conditions: read-out: % control
T25 construct: purchased DiscoveRx KINOMEscan

JNK3 = molecular target: T26, JNK3 (Homo sapiens, UniProt P53779); assay: KinomeScan; format: binding; conditions: read-out: % control
T26 construct: purchased DiscoveRx KINOMEscan
T26 sequence (P53779 whole entry): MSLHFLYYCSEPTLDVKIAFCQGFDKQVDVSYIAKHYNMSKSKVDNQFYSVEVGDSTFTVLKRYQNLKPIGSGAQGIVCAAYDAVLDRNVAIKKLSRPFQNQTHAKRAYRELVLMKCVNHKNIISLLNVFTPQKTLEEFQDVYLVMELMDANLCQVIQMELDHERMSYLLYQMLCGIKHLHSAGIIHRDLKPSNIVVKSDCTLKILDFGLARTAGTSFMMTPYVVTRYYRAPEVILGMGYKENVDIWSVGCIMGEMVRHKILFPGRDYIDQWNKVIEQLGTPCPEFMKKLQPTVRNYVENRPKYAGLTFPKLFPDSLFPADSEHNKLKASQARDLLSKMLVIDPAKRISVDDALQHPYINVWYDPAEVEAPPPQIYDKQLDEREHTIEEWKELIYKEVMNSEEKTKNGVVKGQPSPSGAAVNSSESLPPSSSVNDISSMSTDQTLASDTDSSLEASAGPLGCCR

T1 sequence (Q9HAZ1 whole entry): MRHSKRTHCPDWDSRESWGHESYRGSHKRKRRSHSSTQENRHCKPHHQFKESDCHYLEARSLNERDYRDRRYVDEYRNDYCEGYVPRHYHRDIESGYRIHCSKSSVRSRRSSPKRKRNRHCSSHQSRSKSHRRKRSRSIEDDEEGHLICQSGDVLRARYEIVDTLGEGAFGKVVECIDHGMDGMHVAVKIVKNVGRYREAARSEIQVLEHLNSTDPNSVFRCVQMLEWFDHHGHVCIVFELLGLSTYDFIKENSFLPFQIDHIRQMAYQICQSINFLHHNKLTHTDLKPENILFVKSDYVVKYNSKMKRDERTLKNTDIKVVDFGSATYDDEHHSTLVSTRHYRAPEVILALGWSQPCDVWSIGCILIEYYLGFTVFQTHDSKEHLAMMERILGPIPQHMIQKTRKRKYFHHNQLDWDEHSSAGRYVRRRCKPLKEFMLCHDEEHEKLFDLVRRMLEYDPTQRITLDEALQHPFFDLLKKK

## C=CC(=O)N1CCC[C@@H](n2nc(-c3ccc(OCc4cccc(C)n4)c(Cl)c3)c3c(N)ncnc32)C1 [CHMFL-EGFR-26]
CLK4
  remaining binding at 1 µM: 100%
FLT3(ITD)
  % control: 87%
CDKL3
  remaining binding at 1 µM: 97%
PRKCI
  remaining binding at 1 µM: 100%
EGFR(S752-I759del)
  remaining binding at 1 µM: 12%
ZAP70
  remaining binding at 1 µM: 100%
EGFR(E746-A750del)
  remaining binding at 1 µM: 34%
ABL1-phosphorylated
  remaining binding at 1 µM: 81%
CSNK1G3
  remaining binding at 1 µM: 98%
ASK1
  remaining binding at 1 µM: 97%
TAOK1
  remaining binding at 1 µM: 100%
CTK
  remaining binding at 1 µM: 95%
ACVR1B
  remaining binding at 1 µM: 30%
RIPK5
  remaining binding at 1 µM: 13%
[1]
  remaining binding at 1 µM: 20%
PIK3CA(C420R)
  remaining binding at 1 µM: 100%
MAPKAPK2
  remaining binding at 1 µM: 89%
ABL1-nonphosphorylated
  remaining binding at 1 µM: 87%
RIPK2
  remaining binding at 1 µM: 13%
ADCK3
  remaining binding at 1 µM: 100%
CLK2
  remaining binding at 1 µM: 96%
PC9 tumor xenografts; 25 mg/kg/d oral
  Tumor weight (final, mean): 0.93 g
PC9 tumor xenografts; 50 mg/kg/d oral
  Tumor weight (final, mean): 0.68 g
MST2
  remaining binding at 1 µM: 53%
MAP4K3
  remaining binding at 1 µM: 97%
PAK7
  remaining binding at 1 µM: 67%
BRAF
  remaining binding at 1 µM: 85%
CLK1
  remaining binding at 1 µM: 94%
JNK3
  remaining binding at 1 µM: 86%
